What all share (type): cell-based
Experiment [1] has as its system human hepatic stellate cells LX-2. Briefly: Anti-fibrosis activity test: inhibition of proliferation of human hepatic stellate cells LX-2 (CCK-8). The note with it: Homo sapiens, 48 h, human hepatic stellate cells LX-2, CCK-8, 48 hours. In short, it runs like this: (§1)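 Proliferation read by CCK-8 (2 h, A450) after 48 h compound treatment of cells plated at 2×10^4 cells/mL and allowed 24 h attachment, triplicate per concentration. Inhibition rate derived from absorbance relative to untreated blank, with IC50 fitted; pirfenidone as positive control.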

Another experiment has as its system NF-κB. Briefly: Immunological activity test: inhibition of NF-κB activity. To be noted: initial concentration of 30 μM; a/b isomers given as first/second symbol; read-out: IC50 (μM), inhibitory activity against NF-κB. From the text: Main references for immunological activity test of the compounds of the present application includes: Vogl, S.; Atanasov, A. G.; Binder, M.; Bulusu, M.; Zehl, M.; Fakhrudin, N.; Heiss, E. H.; Picker, P.; Wawrosch, C.; Saukel, J.; Reznicek, G.; Urban, E.; Bochkov, V.; Dirsch, V. M.; Kopp, B. J. Evid-Based Complementary Alern. Med. 2013, ID 395316. Commercially available parthenolide was utilized as a positive control.
The ability of the compounds of the present application to inhibit NF-κB activity was tested at an initial concentration of 30 μM.
The assay data for the compounds of the present application were further analyzed to determine their IC50 values.

Experiment [2] has as its system human dermal fibroblasts CCC-ESF-1. Briefly: Anti-fibrosis activity test: inhibition of proliferation of human dermal fibroblasts CCC-ESF-1 (CCK-8). The note with it: Fibroblast; human dermal fibroblasts CCC-ESF-1, CCK-8, 48 hours. In short, it runs like this:
as §1

Another experiment relates to BHK-21 cells. Briefly: Anti-fibrosis activity test: inhibition of BHK-21 cell proliferation (CCK-8). To be noted: Mesocricetus auratus, BHK-21, 48 h, CCK-8, 48 hours after administration. The method, boiled down: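 Proliferation of BHK-21 cells is measured by CCK-8 at 450 nm following 48 h compound exposure at several concentrations. Inhibition is expressed relative to blank control and IC50 is computed from it.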

Experiment [3] deals with human fibrosarcoma cells HT-1080. Briefly: Anti-fibrosis activity test: inhibition of proliferation of human fibrosarcoma cells HT-1080 (CCK-8). To be noted: Homo sapiens, HT-1080, 48 h, human fibrosarcoma cells HT-1080, CCK-8, 48 hours. The method, boiled down:
as §1

Experiment [4] concerns human lung fibroblasts HFL1. Briefly: Anti-fibrosis activity test: inhibition of proliferation of human lung fibroblasts HFL1 (CCK-8). To be noted: Homo sapiens, HFL1, 48 h, human lung fibroblasts HFL1, CCK-8, 48 hours. The method, boiled down:
as §1

Experiment [5] concerns human embryonic lung fibroblast IMR-90. Briefly: Anti-fibrosis activity test: inhibition of proliferation of human embryonic lung fibroblast IMR-90 (CCK-8). To be noted: human embryonic lung fibroblast IMR-90, CCK-8, 48 hours. The method, boiled down:
as §1

Experiment [6] has as its system cardiac fibroblast RAT-iCell-C002. Briefly: Anti-fibrosis activity test: inhibition of proliferation of cardiac fibroblast RAT-iCell-C002 (CCK-8). To be noted: Cardiac fibroblast, 48 h, cardiac fibroblast RAT-iCell-C002, CCK-8, 48 hours. In short, it runs like this: as §1

For orientation: IC50 means the point on the concentration scale where inhibition reaches its midpoint. As for `O=C1c2c(n(Cc3ccc(C(F)(F)F)cc3)c3ccc(F)cc3c2=O)-c2cccn21` [Compound 620a, 7-Fluoro-4-(4-(trifluoromethyl)benzyl)-9H-pyrrolizino[1,2-b]quinoline-9,10(4H)-dione], the half-maximal inhibitory concentration (IC50) was 0.05 to 5 mM in experiment [1]; 1 to 10 µM in the experiment on NF-κB; 5 to 20 mM in experiment [2]; under 0.05 mM with BHK-21 cells; 0.05 to 5 mM in experiment [3]; 0.05 to 5 mM in experiment [4]. The IC50 in experiment [5] and in experiment [6] was 0.05 to 5 mM each time.

Regarding `O=C1c2c(nc3ccc(F)cc3c2OCc2ccc(C(F)(F)F)cc2)-c2cccn21` [Compound 620b, 7-Fluoro-9-((4-(trifluoromethyl)benzyl)oxy)-10H-pyrrolizino[1,2-b]quinolin-10-one], the concentration for half-maximal inhibition (IC50) in experiment [1] is 0.05 to 5 mM; in the experiment with NF-κB, 1 to 10 µM; in experiment [2], 5 to 20 mM; in the experiment with BHK-21 cells, 0.05 to 5 mM; in experiment [3], 0.05 to 5 mM; in experiment [4] it was 0.05 to 5 mM. Besides, the half-maximal inhibitory concentration (IC50) in experiment [5] and in experiment [6] was 0.05 to 5 mM in each case.

In the case of `O=C1c2c(n(Cc3ccc(Cl)cc3F)c3ccc(F)cc3c2=O)-c2cccn21` [Compound 621a, 4-(4-Chloro-2-fluorobenzyl)-7-fluoro-9H-pyrrolizino[1,2-b]quinoline-9,10(4H)-dione], the half-maximal inhibitory concentration (IC50) lay within 0.05 to 5 mM in experiment [1]; 1 to 10 µM with NF-κB; 0.05 to 5 mM in experiment [2]; 0.05 to 5 mM in the experiment on BHK-21 cells; 0.05 to 5 mM in experiment [3]; 0.05 to 5 mM in experiment [4]. The IC50 in experiment [5] and in experiment [6] was 0.05 to 5 mM in each case.

As for `O=C1c2c(nc3ccc(F)cc3c2OCc2ccc(Cl)cc2F)-c2cccn21` [Compound 621b, 9-((4-chloro-2-fluorobenzyl)oxy)-7-fluoro-10H-pyrrolizino[1,2-b]quinolin-10-one], the IC50 was in the range of 0.05 to 5 mM in experiment [1]; 1 to 10 µM in the experiment on NF-κB; 0.05 to 5 mM in experiment [2]; 0.05 to 5 mM with BHK-21 cells; 0.05 to 5 mM in experiment [3]; 0.05 to 5 mM in experiment [4]. The IC50 in experiment [5] and in experiment [6] was 0.05 to 5 mM throughout.

In the case of `O=C1c2c(n(Cc3cc(C(F)(F)F)cc(C(F)(F)F)c3)c3ccc(F)cc3c2=O)-c2cccn21` [Compound 623a, 4-(3,5-Bis(trifluoromethyl)benzyl)-7-fluoro-9H-pyrrolizino[1,2-b]quinoline-9,10(4H)-dione], the IC50 in experiment [1] was 0.05 to 5 mM; in the experiment with NF-κB, 1 to 10 µM; in experiment [2], under 0.05 mM; in the experiment with BHK-21 cells it was under 0.05 mM; in experiment [3] it was 0.05 to 5 mM; in experiment [4], 0.05 to 5 mM. Also, the IC50 in experiment [5] and in experiment [6] was 0.05 to 5 mM each time.

As for `O=C1c2c(nc3ccc(F)cc3c2OCc2cc(C(F)(F)F)cc(C(F)(F)F)c2)-c2cccn21` [Compound 623b, 9-((3,5-bis(trifluoromethyl)benzyl)oxy)-7-fluoro-10H-pyrrolizino[1,2-b]quinolin-10-one], the IC50 was 0.05 to 5 mM in experiment [1]; 1 to 10 µM with NF-κB; 0.05 to 5 mM in experiment [2]; 0.05 to 5 mM in the experiment with BHK-21 cells; 0.05 to 5 mM in experiment [3]; 0.05 to 5 mM in experiment [4]. The IC50 in experiment [5] and in experiment [6] was 0.05 to 5 mM each time.

Turning to `N#Cc1ccc2c(c1)c(=O)c1c(n2Cc2ccc(F)cc2)-c2cccn2C1=O` [Compound 624a, 4-(4-Fluorobenzyl)-9,10-dioxo-4,10-dihydro-9H-pyrrolizino[1,2-b]quinoline-7-carbonitrile], the 50% inhibitory concentration (IC50) was 5 to 20 mM in experiment [1]; 0.1 to 1 µM in the experiment on NF-κB; 0.05 to 5 mM in experiment [2]; under 0.05 mM in the experiment on BHK-21 cells; 0.05 to 5 mM in experiment [3]; under 0.05 mM in experiment [4]. Further, the half-inhibitory concentration (IC50) in experiment [5] and in experiment [6] was 0.05 to 5 mM each time.

With `N#Cc1ccc2nc3c(c(OCc4ccc(F)cc4)c2c1)C(=O)n1cccc1-3` [Compound 624b, 9-((4-fluorobenzyl)oxy)-10-oxo-10H-pyrrolizino[1,2-b]quinoline-7-carbonitrile], the concentration for half-maximal inhibition (IC50) in experiment [1] is 5 to 20 mM; in the experiment with NF-κB it was 1 to 10 µM; in experiment [2] it was 0.05 to 5 mM; with BHK-21 cells it was 0.05 to 5 mM; in experiment [3], 0.05 to 5 mM; in experiment [4] it was under 0.05 mM. Further, the IC50 in experiment [5] and in experiment [6] was 0.05 to 5 mM each time.

Consider `N#Cc1ccc2c(c1)c(=O)c1c(n2Cc2ccc(Cl)cc2)-c2cccn2C1=O` [Compound 625a, 4-(4-Chlorobenzyl)-9,10-dioxo-4,10-dihydro-9H-pyrrolizino[1,2-b]quinoline-7-carbonitrile], for which the concentration for half-maximal inhibition (IC50) in experiment [1] is 0.05 to 5 mM; in the experiment on NF-κB it was 1 to 10 µM; in experiment [2], 0.05 to 5 mM; in the experiment with BHK-21 cells, 0.05 to 5 mM; in experiment [3], 0.05 to 5 mM; in experiment [4], 0.05 to 5 mM. The IC50 in experiment [5] and in experiment [6] was 0.05 to 5 mM each time.

`N#Cc1ccc2nc3c(c(OCc4ccc(Cl)cc4)c2c1)C(=O)n1cccc1-3` [Compound 625b, 9-((4-chlorobenzyl)oxy)-10-oxo-10H-pyrrolizino[1,2-b]quinoline-7-carbonitrile]: the IC50 in experiment [1] was 0.05 to 5 mM; in the experiment on NF-κB, 1 to 10 µM; in experiment [2] it was 0.05 to 5 mM; in the experiment on BHK-21 cells, 0.05 to 5 mM; in experiment [3] it was 0.05 to 5 mM; in experiment [4], 0.05 to 5 mM. Also, the IC50 in experiment [5] and in experiment [6] was 0.05 to 5 mM each time.

Take `N#Cc1ccc(Cn2c3c(c(=O)c4cc(C#N)ccc42)C(=O)n2cccc2-3)cc1` [Compound 626a, 4-(4-Cyanobenzyl)-9,10-dioxo-4,10-dihydro-9H-pyrrolizino[1,2-b]quinoline-7-carbonitrile]: the IC50 in experiment [1] is 0.05 to 5 mM; with NF-κB, 1 to 10 µM; in experiment [2] it was under 0.05 mM; with BHK-21 cells, 0.05 to 5 mM; in experiment [3], 0.05 to 5 mM; in experiment [4], 0.05 to 5 mM. Besides, the IC50 in experiment [5] and in experiment [6] was 0.05 to 5 mM in each case.

Regarding `N#Cc1ccc(COc2c3c(nc4ccc(C#N)cc24)-c2cccn2C3=O)cc1` [Compound 626b, 9-((4-cyanobenzyl)oxy)-10-oxo-10H-pyrrolizino[1,2-b]quinoline-7-carbonitrile], the concentration for half-maximal inhibition (IC50) in experiment [1] is 0.05 to 5 mM; with NF-κB, 1 to 10 µM; in experiment [2] it was under 0.05 mM; in the experiment with BHK-21 cells it was 0.05 to 5 mM; in experiment [3], 0.05 to 5 mM; in experiment [4], 0.05 to 5 mM. Further, the half-inhibitory concentration (IC50) in experiment [5] and in experiment [6] was 0.05 to 5 mM each time.

`N#Cc1ccc2c(c1)c(=O)c1c(n2Cc2ccc(C(F)(F)F)cc2)-c2cccn2C1=O` [Compound 627a, 9,10-Dioxo-4-(4-(trifluoromethyl)benzyl)-4,10-dihydro-9H-pyrrolizino[1,2-b]quinoline-7-carbonitrile]: the 50% inhibitory concentration (IC50) in experiment [1] was 0.05 to 5 mM; in the experiment with NF-κB, 1 to 10 µM; in experiment [2], 0.05 to 5 mM; with BHK-21 cells, under 0.05 mM; in experiment [3], 0.05 to 5 mM; in experiment [4] it was 0.05 to 5 mM. Besides, the half-maximal inhibitory concentration (IC50) in experiment [5] and in experiment [6] was 0.05 to 5 mM each time.

Consider `N#Cc1ccc2nc3c(c(OCc4ccc(C(F)(F)F)cc4)c2c1)C(=O)n1cccc1-3` [Compound 627b, 10-oxo-9-((4-(trifluoromethyl)benzyl)oxy)-10H-pyrrolizino[1,2-b]quinoline-7-carbonitrile], for which the IC50 in experiment [1] lay within 0.05 to 5 mM; in the experiment on NF-κB it was 1 to 10 µM; in experiment [2], 0.05 to 5 mM; with BHK-21 cells, 0.05 to 5 mM; in experiment [3] it was 0.05 to 5 mM; in experiment [4], 0.05 to 5 mM. In addition, the IC50 in experiment [5] and in experiment [6] was 0.05 to 5 mM each time.

Turning to `N#Cc1ccc2c(c1)c(=O)c1c(n2Cc2ccc(-c3ccccc3)cc2)-c2cccn2C1=O` [Compound 628a, 4-([1,1′-Biphenyl]-4-ylmethyl)-9,10-dioxo-4,10-dihydro-9H-pyrrolizino[1,2-b]quinoline-7-carbonitrile], the IC50 lay within 0.05 to 5 mM in experiment [1]; 1 to 10 µM with NF-κB; 0.05 to 5 mM in experiment [2]; 0.05 to 5 mM with BHK-21 cells; 0.05 to 5 mM in experiment [3]; 5 to 20 mM in experiment [4]. The half-maximal inhibitory concentration (IC50) in experiment [5] and in experiment [6] was 0.05 to 5 mM throughout.

The values are drawn from patent publication US11040028B2, “Penicinotam derivative, preparation method and use thereof” (OCEAN UNIVERSITY OF CHINA, priority 2017, dated 2021).
